Test system: HOP-62 complex spheroids with HUVEC/MSC, viability
Test: Anticancer human tumor HOP-62 cell line growth inhibition [RAS];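 note: spheroids exposed to agents for seven days before readout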;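 for viability, T/C: 100% = DMSO vehicle control viability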
Conditions: for IC50: curve of first compound; for viability, T/C: stronger effect = lower value
Outline: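 Tumour cells grown as complex spheroids with HUVEC endothelial cells and mesenchymal stem cells, treated with RAS pathway inhibitor combinations. Each agent spans half-log steps from near clinical Cmax, or 10 microM where Cmax is unknown.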

[1] = second compound 0.00316 µM, first compound 0.0316 µM
[2] = second compound 0.00316 µM, first compound 0.1 µM
[3] = second compound 0.00316 µM, first compound 0.316 µM
[4] = second compound 0.00316 µM, first compound 1 µM
[5] = second compound 0.01 µM, first compound 0.0316 µM
[6] = second compound 0.01 µM, first compound 0.1 µM
[7] = second compound 0.01 µM, first compound 0.316 µM
[8] = second compound 0.01 µM, first compound 1 µM
[9] = second compound 0.0316 µM, first compound 0.0316 µM
[10] = second compound 0.0316 µM, first compound 0.1 µM
[11] = second compound 0.0316 µM, first compound 0.316 µM
[12] = second compound 0.0316 µM, first compound 1 µM
[13] = second compound 0.1 µM, first compound 0.0316 µM
[14] = second compound 0.1 µM, first compound 0.1 µM
[15] = second compound 0.1 µM, first compound 0.316 µM
[16] = second compound 0.1 µM, first compound 1 µM
[17] = second compound 0.316 µM, first compound 0.0316 µM
[18] = second compound 0.316 µM, first compound 0.1 µM
[19] = second compound 0.316 µM, first compound 0.316 µM
[20] = second compound 0.316 µM, first compound 1 µM
[21] = second compound 1 µM, first compound 0.0316 µM
[22] = second compound 1 µM, first compound 0.1 µM
[23] = second compound 1 µM, first compound 0.316 µM
[24] = second compound 1 µM, first compound 1 µM

C=CC(=O)Nc1cc(Nc2nccc(-c3cn(C)c4ccccc34)n2)c(OC)cc1N(C)CCN(C)C + C=CC(=O)N1CCN(c2nc(OCC3CCCN3C)nc3c(F)c(-c4nc(N)cc(C)c4C(F)(F)F)c(Cl)cc23)C(C)C1
IC50 (second compound 0.00316 µM): 628 nM
IC50 (second compound 0.01 µM): 372 nM
IC50 (second compound 0.0316 µM): 131 nM
IC50 (second compound 0.1 µM): 280 nM
IC50 (second compound 0.316 µM): 308 nM
IC50 (second compound 1 µM): 333 nM
viability, T/C (second compound 0.00316 µM, first compound 0.00316 µM): 82.4%
viability, T/C (second compound 0.00316 µM, first compound 0.01 µM): 74.9%
viability, T/C [1]: 72.5%
viability, T/C [2]: 74.1%
viability, T/C [3]: 64.1%
viability, T/C [4]: 40.5%
viability, T/C (second compound 0.01 µM, first compound 0.00316 µM): 74%
viability, T/C (second compound 0.01 µM, first compound 0.01 µM): 66.6%
viability, T/C [5]: 65.7%
viability, T/C [6]: 66.4%
viability, T/C [7]: 52.9%
viability, T/C [8]: 29.4%
viability, T/C (second compound 0.0316 µM, first compound 0.00316 µM): 74.9%
viability, T/C (second compound 0.0316 µM, first compound 0.01 µM): 69.9%
viability, T/C [9]: 52.6%
viability, T/C [10]: 51.5%
viability, T/C [11]: 51.3%
viability, T/C [12]: 35.2%
viability, T/C (second compound 0.1 µM, first compound 0.00316 µM): 65.7%
viability, T/C (second compound 0.1 µM, first compound 0.01 µM): 66.1%
viability, T/C [13]: 62.7%
viability, T/C [14]: 56.4%
viability, T/C [15]: 50.9%
viability, T/C [16]: 29.4%
viability, T/C (second compound 0.316 µM, first compound 0.00316 µM): 59.2%
viability, T/C (second compound 0.316 µM, first compound 0.01 µM): 58.1%
viability, T/C [17]: 59.2%
viability, T/C [18]: 57.9%
viability, T/C [19]: 48.5%
viability, T/C [20]: 33.8%
viability, T/C (second compound 1 µM, first compound 0.00316 µM): 63.9%
viability, T/C (second compound 1 µM, first compound 0.01 µM): 53.5%
viability, T/C [21]: 68.9%
viability, T/C [22]: 56.9%
viability, T/C [23]: 49.8%
viability, T/C [24]: 34.1%

CC(C)NCC(C(=O)N1CCN(c2ncnc3c2C(C)CC3O)CC1)c1ccc(Cl)cc1 (centres undefined) + C=CC(=O)N1CCN(c2nc(OCC3CCCN3C)nc3c(F)c(-c4nc(N)cc(C)c4C(F)(F)F)c(Cl)cc23)C(C)C1
IC50 (second compound 0.00316 µM): 1050 nM
IC50 (second compound 0.01 µM): 710 nM
IC50 (second compound 0.0316 µM): 464 nM
IC50 (second compound 0.1 µM): 450 nM
IC50 (second compound 0.316 µM): 554 nM
IC50 (second compound 1 µM): 300 nM
viability, T/C [1]: 84.3%
viability, T/C [2]: 78.1%
viability, T/C [3]: 63.4%
viability, T/C [4]: 53.4%
viability, T/C (second compound 0.00316 µM, first compound 3.16 µM): 31%
viability, T/C (second compound 0.00316 µM, first compound 10 µM): 12.8%
viability, T/C [5]: 71.7%
viability, T/C [6]: 67.5%
viability, T/C [7]: 60.2%
viability, T/C [8]: 46.3%
viability, T/C (second compound 0.01 µM, first compound 3.16 µM): 27.1%
viability, T/C (second compound 0.01 µM, first compound 10 µM): 15.3%
viability, T/C [9]: 74.9%
viability, T/C [10]: 60.5%
viability, T/C [11]: 53.7%
viability, T/C [12]: 39.2%
viability, T/C (second compound 0.0316 µM, first compound 3.16 µM): 39%
viability, T/C (second compound 0.0316 µM, first compound 10 µM): 12%
viability, T/C [13]: 70%
viability, T/C [14]: 57.8%
viability, T/C [15]: 60.7%
viability, T/C [16]: 34.6%
viability, T/C (second compound 0.1 µM, first compound 3.16 µM): 25.4%
viability, T/C (second compound 0.1 µM, first compound 10 µM): 13.6%
viability, T/C [17]: 61.7%
viability, T/C [18]: 81.3%
viability, T/C [19]: 55.5%
viability, T/C [20]: 39.4%
viability, T/C (second compound 0.316 µM, first compound 3.16 µM): 23.5%
viability, T/C (second compound 0.316 µM, first compound 10 µM): 12.6%
viability, T/C [21]: 69.8%
viability, T/C [22]: 57.1%
viability, T/C [23]: 50.2%
viability, T/C [24]: 39.4%
viability, T/C (second compound 1 µM, first compound 3.16 µM): 23.9%
viability, T/C (second compound 1 µM, first compound 10 µM): 11.4%
